From US8952024B2, “Herbicidal pyrimidone derivatives” (E I du Pont de Nemours and Company, priority 2009, dated 2015)

What was measured:
Assay type in all cases: in vivo
rice (Oryza sativa) = test: Test B flooded paddy test; settings: for Plant response rating, Flood, Rice: 250 g ai/ha, flooded paddy test, visual rating on 0 to 100 scale (0 no effect, 100 complete control) after 13 to 15 days; for Plant response rating, Rice: Flood (flooded paddy test), 13 to 15 days; for Rice plant response rating: Flood, 31 g ai/ha, scale 0 to 100 (0 no effect, 100 complete control)
In short: (§1)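 Seedlings reaching 2 leaves are flooded 3 cm deep; test material is delivered to that water, which stays at the same depth. Plants remain in a greenhouse 13–15 days and are then scored by eye versus controls from 0 to 100.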

[1] = system: ducksalad (Heteranthera limosa); test: Test B flooded paddy test; settings: for Plant response rating, Flood, Ducksalad: 250 g ai/ha, flooded paddy test, visual rating on 0 to 100 scale (0 no effect, 100 complete control) after 13 to 15 days; for Plant response rating, Ducksalad: Flood (flooded paddy test), 13 to 15 days; for Ducksalad plant response rating: Flood, 31 g ai/ha, scale 0 to 100 (0 no effect, 100 complete control)
In short: as §1

[2] = system: barnyardgrass (Echinochloa crus-galli); test: Test B flooded paddy test; settings: for Plant response rating, Flood, Barnyardgrass: 250 g ai/ha, flooded paddy test, visual rating on 0 to 100 scale (0 no effect, 100 complete control) after 13 to 15 days; for Plant response rating, Barnyardgrass: Flood (flooded paddy test), 13 to 15 days; for Barnyardgrass plant response rating: Flood, 31 g ai/ha, scale 0 to 100 (0 no effect, 100 complete control)
In short: as §1

[3] = system: umbrella sedge (Cyperus difformis); test: Test B flooded paddy test; settings: for Plant response rating, Flood, Sedge, Umbrella: 250 g ai/ha, flooded paddy test, visual rating on 0 to 100 scale (0 no effect, 100 complete control) after 13 to 15 days; for Plant response rating, Sedge, Umbrella: Flood (flooded paddy test), 13 to 15 days; for Sedge, Umbrella plant response rating: Flood, 31 g ai/ha, scale 0 to 100 (0 no effect, 100 complete control)
In short: as §1

[4] = system: morningglory (Ipomoea spp.); test: Test A pre-/postemergence plant response; settings: for Morningglory plant response rating: visual injury, 0 to 100 scale (0 no effect, 100 complete control), approx. ten days
In short: (§2)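 Approximately ten days after concurrent pre- and postemergence spraying in a greenhouse, plants were compared with untreated controls and rated visually for injury, 0 = no effect to 100 = complete control. Preemergence spray was directed onto loam/sand soil; postemergence targeted 1–2 leaf seedlings.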

corn (Zea mays) = test: Test A pre-/postemergence plant response; settings: for Corn plant response rating: visual injury, 0 to 100 scale (0 no effect, 100 complete control), approx. ten days
In short: as §2

[5] = system: large crabgrass (Digitaria sanguinalis); test: Test A pre-/postemergence plant response; settings: for Crabgrass, Large plant response rating: visual injury, 0 to 100 scale (0 no effect, 100 complete control), approx. ten days
In short: as §2

[6] = system: wheat (Triticum aestivum); test: Test A pre-/postemergence plant response; settings: for Wheat plant response rating: visual injury, 0 to 100 scale (0 no effect, 100 complete control), approx. ten days
In short: as §2

[7] = system: giant foxtail (Setaria faberii); test: Test A pre-/postemergence plant response; settings: for Foxtail, Giant plant response rating: visual injury, 0 to 100 scale (0 no effect, 100 complete control), approx. ten days
In short: as §2

[8] = system: barnyardgrass (Echinochloa crus-galli); test: Test A pre-/postemergence plant response; settings: for Barnyardgrass plant response rating: visual injury, 0 to 100 scale (0 no effect, 100 complete control), approx. ten days
In short: as §2

[9] = system: velvetleaf (Abutilon theophrasti); test: Test A pre-/postemergence plant response; settings: for Velvetleaf plant response rating: visual injury, 0 to 100 scale (0 no effect, 100 complete control), approx. ten days
In short: as §2

[10] = system: pigweed (Amaranthus retroflexus); test: Test A pre-/postemergence plant response; settings: for Pigweed plant response rating: visual injury, 0 to 100 scale (0 no effect, 100 complete control), approx. ten days
In short: as §2

[11] = 62 g ai/ha, scale of 0 to 100 where 0 is no effect and 100 is complete control
[12] = 125 g ai/ha, scale 0 to 100, 0 is no effect, 100 is complete control
[13] = Postemergence, 125 g ai/ha, 0 to 100 scale where 0 is no effect and 100 is complete control
[14] = Preemergence, 125 g ai/ha, 0 to 100 scale, 0 = no effect, 100 = complete control
[15] = Preemergence, 500 g ai/ha, 0 to 100 scale, 0 = no effect, 100 = complete control

CCc1ccc(-n2c(-c3cccc(F)c3)ncc(C(=O)C3=C(O)CCCC3=O)c2=O)cc1 [Compound 204]
60: Plant response rating, Flood, Rice (rice (Oryza sativa)) | Plant response rating, Flood, Barnyardgrass [2] | Plant response rating, Crabgrass, Large [5, 13]
100: Plant response rating, Flood, Ducksalad [1] | Morningglory plant response rating ([4]; Postemergence, 500 g ai/ha) | Crabgrass, Large plant response rating ([5]; Postemergence, 500 g ai/ha) | Plant response rating, Crabgrass, Large [5, 15] | Foxtail, Giant plant response rating ([7]; Postemergence, 500 g ai/ha) | Plant response rating, Barnyardgrass [8, 13] | Barnyardgrass plant response rating ([8]; Postemergence, 500 g ai/ha) | Plant response rating, Velvetleaf [9, 13] | Velvetleaf plant response rating ([9]; Postemergence, 500 g ai/ha) | Plant response rating, Pigweed [10, 13] | Pigweed plant response rating ([10]; Postemergence, 500 g ai/ha) | Plant response rating, Pigweed [10, 14] | Plant response rating, Pigweed [10, 15]
30: Plant response rating, Morningglory [4, 13] | Plant response rating, Foxtail, Giant [7, 13] | Plant response rating, Barnyardgrass [8, 14]
95: Plant response rating, Flood, Sedge, Umbrella [3]
25: Plant response rating, Barnyardgrass [2, 12]
75: Plant response rating, Sedge, Umbrella [3, 11]
70: Plant response rating, Ducksalad [1, 11] | Sedge, Umbrella plant response rating [3]
20: Plant response rating, Corn (corn (Zea mays); [14]) | Plant response rating, Corn (corn (Zea mays); [15]) | Plant response rating, Wheat [6, 14] | Plant response rating, Foxtail, Giant [7, 14]
15: Plant response rating, Barnyardgrass [2, 11]
10: Barnyardgrass plant response rating [2] | Corn plant response rating (corn (Zea mays); Postemergence, 500 g ai/ha)
90: Plant response rating, Ducksalad [1, 12] | Plant response rating, Sedge, Umbrella [3, 12] | Plant response rating, Foxtail, Giant [7, 15] | Plant response rating, Velvetleaf [9, 15]
80: Plant response rating, Morningglory [4, 15] | Plant response rating, Barnyardgrass [8, 15]
50: Ducksalad plant response rating [1] | Plant response rating, Velvetleaf [9, 14]
40: Plant response rating, Crabgrass, Large [5, 14] | Wheat plant response rating ([6]; Postemergence, 500 g ai/ha) | Plant response rating, Wheat [6, 15]
0: Plant response rating, Rice (rice (Oryza sativa); [11]) | Plant response rating, Rice (rice (Oryza sativa); [12]) | Rice plant response rating (rice (Oryza sativa)) | Plant response rating, Morningglory [4, 14] | Plant response rating, Corn (corn (Zea mays); [13]) | Plant response rating, Wheat [6, 13]

O=C1CCCC(O)=C1C(=O)c1cnc(-c2cccc(Br)c2)n(C2CCCCC2)c1=O [Compound 206]
100: Plant response rating, Morningglory [4, 13] | Morningglory plant response rating ([4]; Postemergence, 500 g ai/ha) | Crabgrass, Large plant response rating ([5]; Postemergence, 500 g ai/ha) | Barnyardgrass plant response rating ([8]; Postemergence, 500 g ai/ha) | Plant response rating, Velvetleaf [9, 13] | Velvetleaf plant response rating ([9]; Postemergence, 500 g ai/ha) | Pigweed plant response rating ([10]; Postemergence, 500 g ai/ha)
80: Plant response rating, Pigweed [10, 15]
50: Plant response rating, Foxtail, Giant [7, 13]
70: Plant response rating, Ducksalad [1, 11]
30: Plant response rating, Pigweed [10, 14]
20: Plant response rating, Flood, Rice (rice (Oryza sativa)) | Plant response rating, Barnyardgrass [8, 15]
90: Plant response rating, Flood, Ducksalad [1] | Foxtail, Giant plant response rating ([7]; Postemergence, 500 g ai/ha) | Plant response rating, Barnyardgrass [8, 13] | Plant response rating, Pigweed [10, 13]
10: Plant response rating, Crabgrass, Large [5, 14]
60: Plant response rating, Sedge, Umbrella [3, 11] | Plant response rating, Crabgrass, Large [5, 13] | Plant response rating, Crabgrass, Large [5, 15] | Plant response rating, Foxtail, Giant [7, 15] | Plant response rating, Velvetleaf [9, 15]
85: Plant response rating, Flood, Sedge, Umbrella [3]
0: Plant response rating, Rice (rice (Oryza sativa); [11]) | Plant response rating, Flood, Barnyardgrass [2] | Plant response rating, Barnyardgrass [2, 11] | Plant response rating, Morningglory [4, 14] | Plant response rating, Morningglory [4, 15] | Plant response rating, Corn (corn (Zea mays); [13]) | Corn plant response rating (corn (Zea mays); Postemergence, 500 g ai/ha) | Plant response rating, Corn (corn (Zea mays); [14]) | Plant response rating, Corn (corn (Zea mays); [15]) | Plant response rating, Wheat [6, 13] | Wheat plant response rating ([6]; Postemergence, 500 g ai/ha) | Plant response rating, Wheat [6, 14] | Plant response rating, Wheat [6, 15] | Plant response rating, Foxtail, Giant [7, 14] | Plant response rating, Barnyardgrass [8, 14] | Plant response rating, Velvetleaf [9, 14]

O=C1CCCC(O)=C1C(=O)c1cnc(-c2ccccc2)n(CCC(F)(F)F)c1=O [Compound 207]
15: Plant response rating, Flood, Rice (rice (Oryza sativa)) | Plant response rating, Rice (rice (Oryza sativa); [12])
50: Plant response rating, Flood, Ducksalad [1] | Plant response rating, Barnyardgrass [8, 15]
80: Morningglory plant response rating ([4]; Postemergence, 500 g ai/ha) | Plant response rating, Foxtail, Giant [7, 15] | Plant response rating, Pigweed [10, 14]
40: Plant response rating, Sedge, Umbrella [3, 11] | Plant response rating, Morningglory [4, 13]
100: Plant response rating, Crabgrass, Large [5, 15] | Plant response rating, Velvetleaf [9, 13] | Velvetleaf plant response rating ([9]; Postemergence, 500 g ai/ha) | Plant response rating, Velvetleaf [9, 15] | Plant response rating, Pigweed [10, 13] | Pigweed plant response rating ([10]; Postemergence, 500 g ai/ha) | Plant response rating, Pigweed [10, 15]
70: Plant response rating, Flood, Sedge, Umbrella [3] | Plant response rating, Morningglory [4, 15] | Plant response rating, Velvetleaf [9, 14]
30: Corn plant response rating (corn (Zea mays); Postemergence, 500 g ai/ha) | Plant response rating, Foxtail, Giant [7, 14]
10: Plant response rating, Barnyardgrass [8, 14]
90: Crabgrass, Large plant response rating ([5]; Postemergence, 500 g ai/ha) | Foxtail, Giant plant response rating ([7]; Postemergence, 500 g ai/ha) | Barnyardgrass plant response rating ([8]; Postemergence, 500 g ai/ha)
0: Plant response rating, Rice (rice (Oryza sativa); [11]) | Rice plant response rating (rice (Oryza sativa)) | Plant response rating, Ducksalad [1, 11] | Plant response rating, Ducksalad [1, 12] | Ducksalad plant response rating [1] | Plant response rating, Barnyardgrass [2, 11] | Plant response rating, Barnyardgrass [2, 12] | Barnyardgrass plant response rating [2] | Sedge, Umbrella plant response rating [3] | Plant response rating, Morningglory [4, 14] | Plant response rating, Corn (corn (Zea mays); [13]) | Plant response rating, Corn (corn (Zea mays); [14]) | Plant response rating, Corn (corn (Zea mays); [15]) | Plant response rating, Wheat [6, 13] | Wheat plant response rating ([6]; Postemergence, 500 g ai/ha) | Plant response rating, Wheat [6, 14] | Plant response rating, Wheat [6, 15]
20: Plant response rating, Flood, Barnyardgrass [2]
60: Plant response rating, Sedge, Umbrella [3, 12] | Plant response rating, Crabgrass, Large [5, 13] | Plant response rating, Crabgrass, Large [5, 14] | Plant response rating, Foxtail, Giant [7, 13] | Plant response rating, Barnyardgrass [8, 13]
